Experimental data from the Kinase Knowledgebase extract (Sharma et al. 2016).

Molecular target: EGFR (human) (UniProt P00533)
Conditions: hn5

Chain of EGFR (human) (P00533 whole entry, looked up): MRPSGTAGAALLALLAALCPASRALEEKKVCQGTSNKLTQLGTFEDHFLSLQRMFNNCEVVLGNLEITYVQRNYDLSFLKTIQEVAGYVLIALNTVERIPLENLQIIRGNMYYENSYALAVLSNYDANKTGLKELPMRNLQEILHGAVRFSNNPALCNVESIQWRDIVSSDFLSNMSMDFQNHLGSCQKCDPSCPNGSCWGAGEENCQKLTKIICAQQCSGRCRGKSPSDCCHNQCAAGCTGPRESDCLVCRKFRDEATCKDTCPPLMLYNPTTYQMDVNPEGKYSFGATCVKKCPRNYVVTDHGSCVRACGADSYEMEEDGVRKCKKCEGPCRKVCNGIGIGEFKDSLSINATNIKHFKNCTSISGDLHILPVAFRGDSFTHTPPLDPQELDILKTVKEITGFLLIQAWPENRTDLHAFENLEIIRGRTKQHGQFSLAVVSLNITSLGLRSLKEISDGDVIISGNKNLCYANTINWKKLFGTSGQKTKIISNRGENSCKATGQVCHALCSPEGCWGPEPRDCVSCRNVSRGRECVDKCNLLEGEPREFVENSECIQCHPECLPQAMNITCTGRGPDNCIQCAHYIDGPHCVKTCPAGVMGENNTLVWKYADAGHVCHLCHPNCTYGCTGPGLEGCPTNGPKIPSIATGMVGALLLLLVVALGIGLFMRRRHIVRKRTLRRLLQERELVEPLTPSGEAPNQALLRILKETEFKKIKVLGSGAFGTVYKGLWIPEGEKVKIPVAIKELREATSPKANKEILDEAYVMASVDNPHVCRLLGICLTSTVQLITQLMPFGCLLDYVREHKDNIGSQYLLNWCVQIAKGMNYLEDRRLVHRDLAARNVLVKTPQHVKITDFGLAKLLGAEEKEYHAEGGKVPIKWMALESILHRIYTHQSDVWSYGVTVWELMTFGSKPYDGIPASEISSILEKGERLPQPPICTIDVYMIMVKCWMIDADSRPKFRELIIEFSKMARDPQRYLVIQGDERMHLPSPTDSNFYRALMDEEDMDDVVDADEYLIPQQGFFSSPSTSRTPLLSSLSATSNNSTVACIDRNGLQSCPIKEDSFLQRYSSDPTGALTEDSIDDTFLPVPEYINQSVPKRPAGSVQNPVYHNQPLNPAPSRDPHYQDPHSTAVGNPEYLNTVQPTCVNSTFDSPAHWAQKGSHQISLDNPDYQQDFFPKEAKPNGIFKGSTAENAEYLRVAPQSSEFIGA

SMILES	IC50 [µM]
CS(=O)(=O)CCNCc1ccc(-c2cc3c(Nc4ccc5c(cnn5Cc5ccccc5)c4)ncnc3cc2F)o1	< 5
CS(=O)(=O)CCNCc1nc(-c2ccc3ncnc(Nc4ccc(S(=O)(=O)c5ccccc5)cc4)c3c2)cs1	< 5
COc1cc2ncnc(Nc3ccc(S(=O)(=O)c4ccccc4)cc3)c2cc1-c1ccc(CNCCS(C)(=O)=O)o1	< 5
COc1cc2ncnc(Nc3ccc4c(cnn4Cc4ccccc4)c3)c2cc1-c1ccc(CNCCS(C)(=O)=O)o1	< 5
CS(=O)(=O)CCNCc1ccc(-c2ccc3ncnc(Nc4ccc(OCc5ccccc5)c(Cl)c4)c3c2)o1	< 5
CS(=O)(=O)CCNCc1ccc(-c2cc3c(Nc4ccc(S(=O)(=O)c5ccccc5)cc4)ncnc3cn2)o1	< 5
CS(=O)(=O)CCNCc1nc(-c2ccc3ncnc(Nc4ccc5c(cnn5Cc5ccccc5)c4)c3c2)cs1	< 5
CS(=O)(=O)CCNCc1nc(-c2ccc3ncnc(Nc4ccc(OCc5ccccc5)c(F)c4)c3c2)cs1	< 5
CS(=O)(=O)CCNCc1ccc(-c2ccc3ncnc(Nc4ccc(S(=O)(=O)c5ccccc5)cc4)c3c2)o1	< 5
CS(=O)(=O)CCNCc1nc(-c2ccc3ncnc(Nc4ccc5c(cnn5Cc5cccc(F)c5)c4)c3c2)cs1	< 5
CS(=O)(=O)CCNCc1ccc(-c2ccc3ncnc(Nc4ccc(OCc5ccccc5)c(F)c4)c3c2)o1	< 5
CS(=O)(=O)CCNCc1ccc(-c2cc3c(Nc4ccc(S(=O)(=O)c5ccccc5)cc4)ncnc3cc2F)o1	5 to 25
CS(=O)(=O)CCNCc1ccc(-c2ccc3ncnc(Nc4ccc(OCc5ccccc5)c(C(F)(F)F)c4)c3c2)o1	< 5

Other lines, results leading:

IC50 [µM]	SMILES
< 5	CS(=O)(=O)CCNCc1nc(-c2ccc3ncnc(Nc4ccc(OCc5cccc(F)c5)c(F)c4)c3c2)cs1
< 5	CS(=O)(=O)CCNCc1ccc(-c2ccc3ncnc(Nc4ccc(OCc5cccc(Br)c5)cc4)c3c2)o1
< 5	CS(=O)(=O)CCNCc1ccc(-c2cc3c(Nc4ccc(OCc5ccc(F)cc5)cc4)ncnc3cn2)o1
< 5	CS(=O)(=O)CCNCc1cccc(-c2cc3c(Nc4ccc(OCc5ccccc5)cc4)ncnc3cn2)c1
< 5	CS(=O)(=O)CCNCc1nc(-c2ccc3ncnc(Nc4ccc(OCc5cccc(C(F)(F)F)c5)cc4)c3c2)cs1
25 to 50	CS(=O)(=O)CCNCc1nc(-c2ccc3ncnc(Nc4ccc(OCc5cccc(Br)c5)cc4)c3c2)cs1
< 5	CS(=O)(=O)CCNCc1ccc(-c2cc3c(Nc4ccc(OCc5cccc(F)c5)cc4)ncnc3cn2)o1
< 5	CS(=O)(=O)CCNCc1coc(-c2ccc3ncnc(Nc4ccc(OCc5ccccc5)cc4)c3c2)c1
5 to 25	CS(=O)(=O)CCNCc1ccc(-c2ccc3ncnc(Nc4ccc(OCc5cccc(C(F)(F)F)c5)cc4)c3c2)o1
< 5	CS(=O)(=O)CCNCc1ccc(-c2cc3c(Nc4ccc(OCc5ccccc5)cc4)ncnc3cc2F)o1
5 to 25	COc1cc(Nc2ncnc3ccc(-c4csc(CNCCS(C)(=O)=O)n4)cc23)ccc1OCc1cccc(F)c1
< 5	CS(=O)(=O)CCNCc1ccc(-c2ccc3ncnc(Nc4ccc(OCc5cccc(F)c5)cc4)c3c2)o1
< 5	CS(=O)(=O)CCNCc1nc(-c2ccc3ncnc(Nc4ccc(OCc5ccccc5)cc4)c3c2)cs1
< 5	COc1cc(Nc2ncnc3ccc(-c4ccc(CNCCS(C)(=O)=O)o4)cc23)ccc1OCc1cccc(F)c1
< 5	CS(=O)(=O)CCNCc1coc(-c2cc3c(Nc4ccc(OCc5cccc(F)c5)cc4)ncnc3cn2)c1
< 5	CS(=O)(=O)CCNCc1nc(-c2ccc3ncnc(Nc4ccc(OCc5cccc(F)c5)cc4)c3c2)cs1
< 5	CS(=O)(=O)CCNCc1ccc(-c2ccc3ncnc(Nc4ccc(OCc5cccc(F)c5)c(F)c4)c3c2)o1
5 to 25	CS(=O)(=O)CCNCc1ccoc1-c1ccc2ncnc(Nc3ccc(OCc4ccccc4)cc3)c2c1
< 5	COc1cc2ncnc(Nc3ccc(OCc4ccccc4)cc3)c2cc1-c1ccc(CNCCS(C)(=O)=O)o1
